In ChEMBL document CHEMBL4507321 (2021):
Values belong to the compound of their own block, whether it stands above or below them. Calls of active or inactive are those of the source. The rule behind the calls is not given here.

Assays:
MEF = test: Cell growth of Fucci MEFs; type: functional, Mus musculus; settings: Assay publication PMID: 30069049; Compound concentration 1 uM
EMRK1184 = test: Proliferation assay with EMRK1184 lymphoma cells; type: functional, cell-based; settings: Mus musculus
[1] = molecular target: 5-hydroxytryptamine receptor 1A (Homo sapiens) (UniProt P08908); settings: Compound concentration 10.0 uM
[2] = molecular target: 5-hydroxytryptamine receptor 1B (Homo sapiens) (UniProt P28222); settings: Compound concentration 10.0 uM
[3] = molecular target: 5-hydroxytryptamine receptor 1D (Homo sapiens) (UniProt P28221); settings: Compound concentration 10.0 uM
[4] = molecular target: 5-hydroxytryptamine receptor 1E (Homo sapiens) (UniProt P28566); settings: Compound concentration 10.0 uM
[5] = molecular target: 5-hydroxytryptamine receptor 2A (Homo sapiens) (UniProt P28223); settings: Compound concentration 10.0 uM
[6] = molecular target: 5-hydroxytryptamine receptor 2B (Homo sapiens) (UniProt P41595); settings: Compound concentration 10.0 uM
[7] = molecular target: 5-hydroxytryptamine receptor 2C (Homo sapiens) (UniProt P28335); settings: Compound concentration 10.0 uM
[8] = molecular target: 5-hydroxytryptamine receptor 3A (Homo sapiens) (UniProt P46098); settings: Compound concentration 10.0 uM
[9] = molecular target: 5-hydroxytryptamine receptor 5A (Homo sapiens) (UniProt P47898); settings: Compound concentration 10.0 uM
[10] = molecular target: 5-hydroxytryptamine receptor 7 (Homo sapiens) (UniProt P34969); settings: Compound concentration 10.0 uM
[11] = molecular target: D(1A) dopamine receptor (Homo sapiens) (UniProt P21728); settings: Compound concentration 10.0 uM
[12] = molecular target: D(2) dopamine receptor (Homo sapiens) (UniProt P14416); settings: Compound concentration 10.0 uM
[13] = molecular target: D(3) dopamine receptor (Homo sapiens) (UniProt P35462); settings: Compound concentration 10.0 uM
[14] = molecular target: D(4) dopamine receptor (Homo sapiens) (UniProt P21917); settings: Compound concentration 10.0 uM
[15] = molecular target: D(1B) dopamine receptor (Homo sapiens) (UniProt P21918); settings: Compound concentration 10.0 uM
[16] = molecular target: Mu-type opioid receptor (Homo sapiens) (UniProt P35372); settings: Compound concentration 10.0 uM
[17] = molecular target: Delta-type opioid receptor (Homo sapiens) (UniProt P41143); settings: Compound concentration 10.0 uM
[18] = molecular target: Kappa-type opioid receptor (Homo sapiens) (UniProt P41145); settings: Compound concentration 10.0 uM
[19] = molecular target: T1, GABA-A receptor; anion channel (Rattus norvegicus) (UniProt O09028+P15431+P18506+P18508+P19969+P20236+P23574+P23576+P28471+P28473+P30191+P62813+P63079+P63138+Q91ZM7+Q9ES14); settings: Compound concentration 10.0 uM
[20] = molecular target: Histamine H1 receptor (Homo sapiens) (UniProt P35367); settings: Compound concentration 10.0 uM
[21] = molecular target: Histamine H2 receptor (Homo sapiens) (UniProt P25021); settings: Compound concentration 10.0 uM
[22] = molecular target: Histamine H4 receptor (Homo sapiens) (UniProt Q9H3N8); settings: Compound concentration 10.0 uM
[23] = molecular target: Alpha-1A adrenergic receptor (Homo sapiens) (UniProt P35348); settings: Compound concentration 10.0 uM
[24] = molecular target: Alpha-1B adrenergic receptor (Homo sapiens) (UniProt P35368); settings: Compound concentration 10.0 uM
[25] = molecular target: Alpha-2B adrenergic receptor (Homo sapiens) (UniProt P18089); settings: Compound concentration 10.0 uM
[26] = molecular target: Alpha-2C adrenergic receptor (Homo sapiens) (UniProt P18825); settings: Compound concentration 10.0 uM
[27] = molecular target: Beta-1 adrenergic receptor (Homo sapiens) (UniProt P08588); settings: Compound concentration 10.0 uM
[28] = molecular target: Beta-2 adrenergic receptor (Homo sapiens) (UniProt P07550); settings: Compound concentration 10.0 uM
[29] = molecular target: Muscarinic acetylcholine receptor M1 (Homo sapiens) (UniProt P11229); settings: Compound concentration 10.0 uM
[30] = molecular target: Muscarinic acetylcholine receptor M2 (Homo sapiens) (UniProt P08172); settings: Compound concentration 10.0 uM
[31] = molecular target: Muscarinic acetylcholine receptor M4 (Homo sapiens) (UniProt P08173); settings: Compound concentration 10.0 uM
[32] = molecular target: Muscarinic acetylcholine receptor M5 (Homo sapiens) (UniProt P08912); settings: Compound concentration 10.0 uM
[33] = molecular target: Beta-3 adrenergic receptor (Homo sapiens) (UniProt P13945); settings: Compound concentration 10.0 uM
[34] = molecular target: T1, GABA-A receptor; anion channel (Rattus norvegicus); settings: Compound concentration 10.0 uM; remark: listed apart in the source
Rattus norvegicus = species: Rattus norvegicus; settings: Compound concentration 10.0 uM
[35] = molecular target: Alpha-1D adrenergic receptor (Homo sapiens) (UniProt P25100); settings: Compound concentration 10.0 uM
[36] = molecular target: Sigma intracellular receptor 2 (Homo sapiens) (UniProt Q5BJF2); settings: Compound concentration 10.0 uM
[37] = molecular target: Sigma non-opioid intracellular receptor 1 (Homo sapiens) (UniProt Q99720); settings: Compound concentration 10.0 uM
[38] = molecular target: T2, Sodium-dependent dopamine transporter (Homo sapiens, UniProt Q01959); test: GPCRScan assay: inhibition of DAT; parameters: radioligand conc. used [nm] 3.6 – 16.0, parental cells stable HEK
[39] = molecular target: Alpha-2A adrenergic receptor (Homo sapiens, UniProt P08913); test: GPCRScan assay: inhibition of Alpha2A; parameters: radioligand conc. used [nm] 1.0 – 3.0, parental cells stable MDCK
[40] = molecular target: Methionine aminopeptidase 2 (Homo sapiens, UniProt P50579); test: Biochemical activity-MetAP2 using Co
[41] = molecular target: 5-hydroxytryptamine receptor 6 (Homo sapiens) (UniProt P50406); settings: Compound concentration 10.0 uM
[42] = molecular target: Sodium-dependent serotonin transporter (Homo sapiens) (UniProt P31645); settings: Compound concentration 10.0 uM
[43] = molecular target: Sodium-dependent noradrenaline transporter (Homo sapiens) (UniProt P23975); settings: Compound concentration 10.0 uM
[44] = molecular target: T2, Sodium-dependent dopamine transporter; settings: Compound concentration 10.0 uM
[45] = molecular target: Histamine H3 receptor (Homo sapiens) (UniProt Q9Y5N1); settings: Compound concentration 10.0 uM
[46] = molecular target: Alpha-2A adrenergic receptor (Homo sapiens) (UniProt P08913); settings: Compound concentration 10.0 uM
[47] = molecular target: Muscarinic acetylcholine receptor M3 (Homo sapiens) (UniProt P20309); settings: Compound concentration 10.0 uM

T2 sequence (Q01959 whole entry): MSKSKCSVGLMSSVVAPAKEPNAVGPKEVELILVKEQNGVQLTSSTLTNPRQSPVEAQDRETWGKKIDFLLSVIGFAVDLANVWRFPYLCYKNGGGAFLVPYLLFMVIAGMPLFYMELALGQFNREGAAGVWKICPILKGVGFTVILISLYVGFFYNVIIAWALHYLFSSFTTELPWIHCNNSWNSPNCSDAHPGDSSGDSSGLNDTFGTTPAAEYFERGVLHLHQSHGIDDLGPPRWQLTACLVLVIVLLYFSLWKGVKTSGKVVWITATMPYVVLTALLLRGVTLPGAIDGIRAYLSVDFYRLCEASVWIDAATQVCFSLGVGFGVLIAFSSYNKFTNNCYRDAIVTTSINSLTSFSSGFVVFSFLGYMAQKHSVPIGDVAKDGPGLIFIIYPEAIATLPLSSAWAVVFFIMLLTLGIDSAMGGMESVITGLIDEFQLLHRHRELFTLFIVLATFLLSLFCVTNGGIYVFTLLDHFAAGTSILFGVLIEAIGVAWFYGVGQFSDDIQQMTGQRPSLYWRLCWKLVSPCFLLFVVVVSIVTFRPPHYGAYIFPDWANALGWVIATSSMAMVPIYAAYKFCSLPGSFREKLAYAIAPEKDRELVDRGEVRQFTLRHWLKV
Chain of D(4) dopamine receptor (Homo sapiens) (P21917 whole entry): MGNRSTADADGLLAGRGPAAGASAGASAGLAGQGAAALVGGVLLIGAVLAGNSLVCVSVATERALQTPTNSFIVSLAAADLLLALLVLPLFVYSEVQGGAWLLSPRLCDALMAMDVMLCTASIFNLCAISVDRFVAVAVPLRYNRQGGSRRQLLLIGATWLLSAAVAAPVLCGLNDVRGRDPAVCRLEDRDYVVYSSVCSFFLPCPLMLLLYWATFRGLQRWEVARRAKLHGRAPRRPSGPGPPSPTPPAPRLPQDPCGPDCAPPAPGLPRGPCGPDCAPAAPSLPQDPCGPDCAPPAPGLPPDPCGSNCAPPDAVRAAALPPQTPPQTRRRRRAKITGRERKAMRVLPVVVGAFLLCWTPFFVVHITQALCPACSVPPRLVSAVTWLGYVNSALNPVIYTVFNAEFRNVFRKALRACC
Chain of 5-hydroxytryptamine receptor 1E (Homo sapiens) (P28566 whole entry): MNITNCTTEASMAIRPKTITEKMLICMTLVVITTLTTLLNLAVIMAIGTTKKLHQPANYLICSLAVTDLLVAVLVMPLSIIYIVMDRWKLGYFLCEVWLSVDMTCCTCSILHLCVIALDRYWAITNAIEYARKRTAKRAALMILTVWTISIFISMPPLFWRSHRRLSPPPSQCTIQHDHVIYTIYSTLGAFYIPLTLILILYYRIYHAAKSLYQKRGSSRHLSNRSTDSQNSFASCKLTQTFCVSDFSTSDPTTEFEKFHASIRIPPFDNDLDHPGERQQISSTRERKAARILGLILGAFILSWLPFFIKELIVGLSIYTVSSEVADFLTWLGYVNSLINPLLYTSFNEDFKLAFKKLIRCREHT
Chain of D(2) dopamine receptor (Homo sapiens) (P14416 whole entry): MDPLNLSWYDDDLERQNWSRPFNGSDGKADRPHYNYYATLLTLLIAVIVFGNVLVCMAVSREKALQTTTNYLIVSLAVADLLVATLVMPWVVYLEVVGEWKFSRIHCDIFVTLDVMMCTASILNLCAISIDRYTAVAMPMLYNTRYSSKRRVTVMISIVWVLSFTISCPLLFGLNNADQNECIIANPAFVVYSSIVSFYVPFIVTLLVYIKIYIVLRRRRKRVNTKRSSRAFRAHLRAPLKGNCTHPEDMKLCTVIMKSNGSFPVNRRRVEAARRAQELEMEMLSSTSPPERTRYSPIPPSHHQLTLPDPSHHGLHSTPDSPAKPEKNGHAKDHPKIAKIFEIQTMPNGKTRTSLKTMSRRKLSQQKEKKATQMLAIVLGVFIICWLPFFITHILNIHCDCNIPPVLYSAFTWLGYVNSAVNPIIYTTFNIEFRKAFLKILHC
Chain of Alpha-1D adrenergic receptor (Homo sapiens) (P25100 whole entry): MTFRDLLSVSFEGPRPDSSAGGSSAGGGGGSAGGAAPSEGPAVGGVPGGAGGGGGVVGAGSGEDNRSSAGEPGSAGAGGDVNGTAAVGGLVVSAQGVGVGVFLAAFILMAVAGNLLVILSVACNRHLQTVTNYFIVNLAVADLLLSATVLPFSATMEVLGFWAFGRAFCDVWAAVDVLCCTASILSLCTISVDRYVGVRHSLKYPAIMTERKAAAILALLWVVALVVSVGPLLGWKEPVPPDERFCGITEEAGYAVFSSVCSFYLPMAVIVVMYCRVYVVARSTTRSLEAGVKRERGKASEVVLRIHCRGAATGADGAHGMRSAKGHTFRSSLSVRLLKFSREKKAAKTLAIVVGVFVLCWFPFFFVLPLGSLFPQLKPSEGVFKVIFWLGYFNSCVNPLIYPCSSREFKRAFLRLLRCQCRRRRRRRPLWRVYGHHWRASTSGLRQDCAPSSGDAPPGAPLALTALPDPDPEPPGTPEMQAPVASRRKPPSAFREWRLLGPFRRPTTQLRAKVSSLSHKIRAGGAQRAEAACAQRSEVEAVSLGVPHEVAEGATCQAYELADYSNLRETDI
Chain of 5-hydroxytryptamine receptor 5A (Homo sapiens) (P47898 whole entry): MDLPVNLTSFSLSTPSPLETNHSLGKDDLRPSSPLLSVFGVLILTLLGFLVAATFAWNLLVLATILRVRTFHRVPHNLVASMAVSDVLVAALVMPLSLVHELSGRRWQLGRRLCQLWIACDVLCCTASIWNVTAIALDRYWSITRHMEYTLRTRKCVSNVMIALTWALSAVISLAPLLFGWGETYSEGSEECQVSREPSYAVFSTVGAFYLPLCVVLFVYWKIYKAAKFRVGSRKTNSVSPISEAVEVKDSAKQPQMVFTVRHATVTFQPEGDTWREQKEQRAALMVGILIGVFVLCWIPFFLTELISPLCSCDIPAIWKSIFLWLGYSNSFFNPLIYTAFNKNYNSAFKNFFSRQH
Chain of Alpha-2B adrenergic receptor (Homo sapiens) (P18089 whole entry): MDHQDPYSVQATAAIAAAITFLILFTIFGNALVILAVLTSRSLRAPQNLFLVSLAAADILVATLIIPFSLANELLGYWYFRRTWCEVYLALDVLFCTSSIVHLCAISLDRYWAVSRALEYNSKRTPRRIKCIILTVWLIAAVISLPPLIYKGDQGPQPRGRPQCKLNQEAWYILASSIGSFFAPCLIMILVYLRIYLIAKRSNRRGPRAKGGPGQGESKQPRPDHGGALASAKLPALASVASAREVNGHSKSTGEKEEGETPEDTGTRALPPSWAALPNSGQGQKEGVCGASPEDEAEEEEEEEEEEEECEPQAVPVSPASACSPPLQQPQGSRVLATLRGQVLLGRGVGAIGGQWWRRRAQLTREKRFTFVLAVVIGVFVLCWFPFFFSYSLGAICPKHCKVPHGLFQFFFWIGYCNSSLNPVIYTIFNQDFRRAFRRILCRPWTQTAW
Chain of Sigma intracellular receptor 2 (Homo sapiens) (Q5BJF2 whole entry): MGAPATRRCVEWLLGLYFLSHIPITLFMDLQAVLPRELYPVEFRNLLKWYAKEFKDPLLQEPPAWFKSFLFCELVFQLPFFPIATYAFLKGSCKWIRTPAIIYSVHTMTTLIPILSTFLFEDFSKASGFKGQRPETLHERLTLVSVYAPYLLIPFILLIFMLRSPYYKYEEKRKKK
Chain of 5-hydroxytryptamine receptor 2A (Homo sapiens) (P28223 whole entry): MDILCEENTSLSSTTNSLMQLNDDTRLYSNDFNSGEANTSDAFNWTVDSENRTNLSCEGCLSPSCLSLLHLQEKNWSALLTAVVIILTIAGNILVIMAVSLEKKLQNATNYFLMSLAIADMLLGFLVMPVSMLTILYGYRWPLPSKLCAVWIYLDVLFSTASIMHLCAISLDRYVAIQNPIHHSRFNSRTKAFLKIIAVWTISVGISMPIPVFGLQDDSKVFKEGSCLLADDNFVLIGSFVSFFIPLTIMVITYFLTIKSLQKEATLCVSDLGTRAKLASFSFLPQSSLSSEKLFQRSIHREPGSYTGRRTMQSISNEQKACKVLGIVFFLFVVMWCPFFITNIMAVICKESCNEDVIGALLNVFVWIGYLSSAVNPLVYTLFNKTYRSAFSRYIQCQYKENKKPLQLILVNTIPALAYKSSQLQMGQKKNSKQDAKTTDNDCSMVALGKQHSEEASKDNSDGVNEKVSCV
Chain of 5-hydroxytryptamine receptor 1A (Homo sapiens) (P08908 whole entry): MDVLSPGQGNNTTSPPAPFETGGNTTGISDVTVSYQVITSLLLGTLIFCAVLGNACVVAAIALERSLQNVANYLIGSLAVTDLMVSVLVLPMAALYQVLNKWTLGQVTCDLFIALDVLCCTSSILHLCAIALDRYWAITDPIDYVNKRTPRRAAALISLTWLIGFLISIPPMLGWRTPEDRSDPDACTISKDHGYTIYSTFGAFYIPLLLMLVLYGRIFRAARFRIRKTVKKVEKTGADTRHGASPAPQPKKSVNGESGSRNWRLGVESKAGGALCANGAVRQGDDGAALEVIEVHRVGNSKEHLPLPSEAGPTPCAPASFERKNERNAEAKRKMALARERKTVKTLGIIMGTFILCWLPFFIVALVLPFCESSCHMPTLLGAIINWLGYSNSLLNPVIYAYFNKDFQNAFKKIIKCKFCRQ
Chain of Muscarinic acetylcholine receptor M2 (Homo sapiens) (P08172 whole entry): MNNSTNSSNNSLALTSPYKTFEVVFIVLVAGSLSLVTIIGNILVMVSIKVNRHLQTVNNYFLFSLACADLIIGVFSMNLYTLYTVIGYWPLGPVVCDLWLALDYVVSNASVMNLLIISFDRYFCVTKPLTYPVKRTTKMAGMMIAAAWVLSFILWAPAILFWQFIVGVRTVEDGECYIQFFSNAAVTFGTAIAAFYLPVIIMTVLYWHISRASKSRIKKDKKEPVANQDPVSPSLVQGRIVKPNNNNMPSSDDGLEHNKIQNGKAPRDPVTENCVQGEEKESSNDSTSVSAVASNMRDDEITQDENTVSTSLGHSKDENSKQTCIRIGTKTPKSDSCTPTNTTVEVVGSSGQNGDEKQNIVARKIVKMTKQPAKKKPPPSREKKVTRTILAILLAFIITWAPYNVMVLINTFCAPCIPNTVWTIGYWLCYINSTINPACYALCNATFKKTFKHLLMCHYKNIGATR

inhibition [1]: 16% | inhibition [2]: 13.6% | inhibition [3]: -0.66% | inhibition [4]: 13.8% | inhibition [5]: -7.37% | inhibition [6]: 2.94% | inhibition [7]: 6.46% | inhibition [8]: 32.9% | inhibition [9]: -9.77% | inhibition [10]: -3.75% | inhibition [11]: -3.67% | inhibition [12]: 79.6% | inhibition [13]: 4.97% | inhibition [14]: 23.8% | inhibition [15]: 4.57% | inhibition [16]: 3.45% | inhibition [17]: 20.6% | inhibition [18]: 5.23% | inhibition [19]: 11.7% | inhibition [20]: -8.33% | inhibition [21]: 5.32% | inhibition [22]: -2.44% | inhibition [23]: 9.59% | inhibition [24]: 7.18% | inhibition [25]: -3.78% | inhibition [26]: 10.2% | inhibition [27]: -0.13% | inhibition [28]: 13.2% | inhibition [29]: 0.14% | inhibition [30]: 15.9% | inhibition [31]: 20.4% | inhibition [32]: -8.87% | inhibition [33]: 16.3% | inhibition [34]: 75.7% | inhibition (Rattus norvegicus): 47% | inhibition [35]: 3.2% | inhibition [36]: 19.9% | inhibition [37]: 35.7%
Structure (SMILES): O=C(NNS(=O)(=O)c1ccccc1F)c1cc(F)cc(-c2ccccn2)c1 [WM-1119]
Cell cycle effect (MEF): 0 | IC50 (EMRK1184): 0.25 µM (active)

Ki [38]: > 10 µM | pKi [38]: < 5 | Ki [39]: > 10 µM | pKi [39]: < 5 | IC50 [40]: > 50 µM (not active) | inhibition [1]: 23.1% | inhibition [2]: 11% | inhibition [4]: 13.1% | inhibition [5]: 11.8% | inhibition [6]: 40.1% | inhibition [7]: 7.81% | inhibition [8]: 4.55% | inhibition [9]: -0.06% | inhibition [41]: 2.65% | inhibition [10]: -1.87% | inhibition [11]: 8.58% | inhibition [12]: 14.7% | inhibition [13]: -8.61% | inhibition [14]: 9.83% | inhibition [15]: 5.79% | inhibition [42]: 6.15% | inhibition [43]: -2.4% | inhibition [44]: 80.2% | inhibition [16]: 26.1% | inhibition [17]: 7.99% | inhibition [18]: -5.1% | inhibition [19]: 4.55% | inhibition [20]: -2.04% | inhibition [21]: -5.93% | inhibition [45]: 15.5% | inhibition [23]: 18.6% | inhibition [24]: -3.44% | inhibition [46]: 68.5% | inhibition [25]: 3.07% | inhibition [26]: -5.42% | inhibition [27]: 11.2% | inhibition [28]: 10.4% | inhibition [29]: 43.3% | inhibition [30]: -5.57% | inhibition [47]: 13% | inhibition [34]: 34.6% | inhibition (Rattus norvegicus): -3.6% | inhibition [35]: 17.4% | inhibition [36]: 40.1% | inhibition [37]: 19.1%
Structure (SMILES): O=C(NNS(=O)(=O)c1ccccc1)c1cc(-c2ccnnc2)ccc1F [WM-2474]
Cell cycle effect (MEF): 0
